Results as given in ChEMBL document CHEMBL4417628, “Small molecule antagonists of dusp5 and methods of use” (2018).
Numbering of substitutions follows the chain as printed. Calls of active or inactive are those of the source. The rule behind the calls is not given here.

Experiments:
[1] = target: T1, Dual specificity protein phosphatase 5 (Homo sapiens) (UniProt Q16690); test: Potency index, ratio of IC50 for NTS to IC50 for test compound for inhibition of full length DUSP5 (unknown origin) assessed as reduction in de-phosphorylation of GST-tagged recombinant phosphorylated ERK2 incubated for 15 mins by SDS-PAGE based immunoblot assay
T1 sequence (whole entry): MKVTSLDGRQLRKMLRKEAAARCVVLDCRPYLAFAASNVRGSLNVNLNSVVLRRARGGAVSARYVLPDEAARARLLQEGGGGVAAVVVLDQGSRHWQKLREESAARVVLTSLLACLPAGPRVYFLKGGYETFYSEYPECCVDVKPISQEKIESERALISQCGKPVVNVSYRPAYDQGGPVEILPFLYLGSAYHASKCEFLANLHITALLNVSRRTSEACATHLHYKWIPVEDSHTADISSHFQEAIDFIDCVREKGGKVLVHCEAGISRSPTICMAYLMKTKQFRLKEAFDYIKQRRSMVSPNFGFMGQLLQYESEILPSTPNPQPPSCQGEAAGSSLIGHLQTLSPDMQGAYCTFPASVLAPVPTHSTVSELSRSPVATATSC

[2] = target: T2, Tyrosine-protein phosphatase non-receptor type 1 (Homo sapiens, UniProt P18031); test: Inhibition of PTPN1 (unknown origin) using PNPP substrate incubated for 15 mins relative to control
T2 sequence (P18031 whole entry): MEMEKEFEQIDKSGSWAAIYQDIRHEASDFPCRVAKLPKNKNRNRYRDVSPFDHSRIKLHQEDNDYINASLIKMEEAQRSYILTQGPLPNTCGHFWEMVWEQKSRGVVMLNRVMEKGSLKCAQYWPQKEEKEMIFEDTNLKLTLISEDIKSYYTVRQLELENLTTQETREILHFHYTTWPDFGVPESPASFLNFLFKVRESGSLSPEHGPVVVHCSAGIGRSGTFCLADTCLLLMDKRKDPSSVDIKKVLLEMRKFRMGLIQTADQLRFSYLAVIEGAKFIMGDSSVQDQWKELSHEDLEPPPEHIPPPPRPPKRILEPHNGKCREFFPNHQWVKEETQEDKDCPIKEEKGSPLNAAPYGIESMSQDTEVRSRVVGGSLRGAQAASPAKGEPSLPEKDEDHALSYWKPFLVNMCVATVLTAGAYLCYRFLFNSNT

[3] = test system: T3, Dual specificity protein phosphatase 5 (Homo sapiens), Q16690 [C263S]; test: Binding affinity to N-terminal hexa-histidine-tagged and 15N-labeled DUSP5 C263S mutant (unknown origin) expressed in Escherichia coli BL21 (DE3) at 500 uM by 2D 1H-15N HSQC NMR assay
T3 sequence (whole entry): T1 sequence (whole entry) with C263S

Structure (SMILES): O=S(=O)([O-])c1cc(O)c2c(S(=O)(=O)[O-])cccc2c1.[Na+].[Na+]
- Ratio IC50 [1]: 1000
- IC50 [2]: Not Active
- Activity [3]: Active
